Measurements as given in patent US12662473B2, “Inhibitors for programmed cell necrosis and preparation method therefor and use thereof” (SHANGHAI INSTITUTE OF ORGANIC CHEMISTRY, CHINESE ACADEMY OF …, priority 2019, dated 2026).
Read-outs that look alike come from different tables or passages of the source.

Tests used:
FADD−/− Jurkat cells = experiment: TNF-induced programmed cell necrosis inhibition, Cell Titer-Glo viability; type: cell-based; conditions: Homo sapiens, Jurkat
Summary of the method: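 FADD-deficient Jurkat cells (2.5×10^5/mL) were pretreated 1 h at 37 °C with compound plus Smac (50 nM as added), then stimulated with TNFα (50 ng/mL as added) for 14 h at 37 °C, 5% CO2. Viability was measured as ATP by CellTiter-Glo luminescence, with unstimulated DMSO wells as 100%. EC50 values were derived.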

L929 cells = experiment: as above; type: cell-based, mouse; conditions: Mus musculus, read-out: EC50 inhibitory activity on programmed cell necrosis
Summary of the method: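 L929 mouse fibroblasts were pretreated 1 h at 37 °C with compound plus Smac (500 nM solution added), then stimulated with TNFα (500 ng/mL solution added) for 14 h. Viability was read as ATP by CellTiter-Glo luminescence, with unstimulated DMSO wells set to 100%, and EC50 values were calculated.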

RIPK1 (S161E) = experiment: Effect of RIPK1 S161E mutation on compound activity (S161E MEFs western blot and cell death with TNFα and 5z7); type: cell-based, mouse; conditions: FIG. 6
Experimental: The biological test protocol used in this experiment was to test the effect of serine mutation at position 161 of RIPK1 to glutamic acid on the activity of the compound. The experiment was verified by two aspects. On the one hand, the mouse-derived MEFs cells in which RIPK1 (S161E) was put back after knocking out RIPK1 were treated with the compound of the present invention, and the phosphorylation state of RIPK1 was detected by western-blot; on the other hand, whether the compounds of the present invention have inhibitory effect on RIPK1-dependent apoptosis in the above-mentioned S161E cells was detected.
1. S161E MEFs cells were digested, and then diluted to 1.5×10^5/ml, and the cells were seeded into 6-well plates with 2 ml per well. The plate was placed in a cell incubator (37° C., 5% CO2) for 12 hours. 0.4 μL of compound 4-8 (50 mM in DMSO) or 0.4 μL of Nec-1s (50 μM in DMSO) was added to the wells respectively, 0.4 μL of DMSO was added to the control group. […] The BCA protein quantification kit was used to detect the protein content of each group, and PIPA lysis buffer was used to adjust the protein amount to make the final volume of 100 μL. […] The cells were incubated at room temperature for 30 min, and the luminescence value was detected to measure the level of intracellular ATP. […]

[1] = 14 h, TNFa + SM164, read-out: EC50 inhibitory activity on programmed cell necrosis
[2] = TNFa, read-out: EC50 inhibitory activity on programmed cell necrosis
[3] = L929, 14 h, L929 cells (mouse), TNFa + SM164

Row | SMILES | EC50 (FADD−/− Jurkat cells; [1]) | EC50 (FADD−/− Jurkat cells; [2]) | EC50 (L929 cells; [3]) | EC50 (L929 cells; L929, L929 cells (mouse), TNFa) | inhibition of programmed cell necrosis after mutation of serine 161 of RIPK1 to glutamic acid (RIPK1 (S161E))
1 | Cc1ccc(C2CCCN2C(=O)C(C)(C)Oc2ccc(Cl)cc2)cc1 (stereo not drawn) [QY-4-8] | 0.568 µM | 0.091 µM | 0.139 µM | 0.05 µM | can still inhibit the programmed cells necrosis
2 | Cc1ccc(C2CCCN2C(=O)C(C)(C)C(=O)N2CCC(C)CC2)cc1 (stereo not drawn) [QY-14-8] | > 10 µM | > 10 µM | > 10 µM | > 10 µM | –
3 | Cc1ccc(C2CCCN2C(=O)C(C)(C)C(=O)N2CCN(C)CC2)cc1 (stereo not drawn) [QY-14-9] | > 10 µM | > 10 µM | > 10 µM | > 10 µM | –
4 | Cc1ccc(C2CCCN2C(=O)C(C)(C)Oc2cccc(C(N)=O)c2)cc1 (stereo not drawn) [QY-14-17] | > 10 µM | > 10 µM | > 10 µM | > 10 µM | –
5 | Cc1ccc(C2CCCN2C(=O)C(C)(C)Oc2cccc(C#N)c2)cc1 (stereo not drawn) [QY-14-24] | 0.939 µM | 0.022 µM | 0.066 µM | 0.0154 µM | –
6 | CNC(=O)c1cccc(OC(C)(C)C(=O)N2CCCC2c2ccc(C)cc2)c1 (stereo not drawn) [QY-14-25] | > 10 µM | > 10 µM | > 10 µM | > 10 µM | –
7 | Cc1ccc(C2CCCN2C(=O)C(C)(C)Oc2cc(C(N)=O)ncn2)cc1 (stereo not drawn) [QY-14-27] | > 10 µM | > 10 µM | > 10 µM | 8.45 µM | –
8 | Cc1ccc(C2CCCN2C(=O)C(C)(C)C(=O)N2CCCC2)cc1 (stereo not drawn) [QY-14-29] | > 10 µM | > 10 µM | > 10 µM | > 10 µM | –
9 | Cc1ccc(C2CCCN2C(=O)C(C)(C)C(=O)n2cccn2)cc1 (stereo not drawn) [QY-14-30] | > 10 µM | > 10 µM | > 10 µM | 4.89 µM | –
10 | Cc1ccc(C2CCCN2C(=O)C(C)(C)C(=O)N2CCNC(=O)C2)cc1 (stereo not drawn) [QY-14-31] | > 10 µM | > 10 µM | > 10 µM | > 10 µM | –
11 | Cc1ccc(C2CCCN2C(=O)C(C)(C)C(=O)N2CCNCC2)cc1 (stereo not drawn) [QY-14-33] | > 10 µM | > 10 µM | > 10 µM | > 10 µM | –
12 | Cc1ccc(C2CCCN2C(=O)C(C)(C)Oc2ccc(C(N)=O)cc2)cc1 (stereo not drawn) [QY-14-34] | > 10 µM | 2.36 µM | > 10 µM | 0.816 µM | –
13 | Cc1ccc(C2CCCN2C(=O)C(C)(C)Oc2cc(C#N)ncn2)cc1 (stereo not drawn) [QY-14-35] | > 10 µM | > 10 µM | > 10 µM | > 10 µM | –
14 | COc1cc(Cl)ccc1OC(C)(C)C(=O)N1N=CCC1c1cncc(F)c1 (stereo not drawn) [QY-14-40] | > 10 µM | > 10 µM | > 10 µM | > 10 µM | –
15 | Cc1ccc(C2CCCN2C(=O)C(C)(C)C(=O)N2CCCCC2)cc1 (stereo not drawn) [QY-14-44] | > 10 µM | > 10 µM | > 10 µM | > 10 µM | –
16 | Cc1ccc(C2CCCN2C(=O)C(C)(C)Oc2ccc(C#N)c(C#N)c2)cc1 (stereo not drawn) [QY-14-59] | > 10 µM | 4.57 µM | > 10 µM | 0.467 µM | –
17 | Cc1ccc(C2CCCN2C(=O)C(C)(C)Oc2ccc(Cl)c(C#N)c2)cc1 (stereo not drawn) [QY-14-60] | 1.62 µM | 0.283 µM | 0.497 µM | 0.141 µM | –
18 | C#Cc1ccc(OC(C)(C)C(=O)N2CCCC2c2ccc(C)cc2)cc1 (stereo not drawn) [QY-14-68] | 0.18 µM | 0.0173 µM | 0.102 µM | 0.021 µM | –
19 | Cc1ccc(C2CCCN2C(=O)C(C)(C)Oc2ccc(C#CC(C)(C)O)cc2)cc1 (stereo not drawn) [QY-15-11] | > 10 µM | > 10 µM | > 10 µM | 2.84 µM | –
20 | Cc1ccc(C2CCCN2C(=O)C(C)(C)Oc2ccc(C#Cc3cccnc3)cc2)cc1 (stereo not drawn) [QY-15-12] | > 10 µM | > 10 µM | > 10 µM | 5.16 µM | –
21 | Cc1ccc(C2CCCN2C(=O)C(C)(C)Oc2ccc(C#CC3CCNCC3)cc2)cc1 (stereo not drawn) [QY-15-31] | > 10 µM | 0.818 µM | > 10 µM | 0.0824 µM | –
22 | [2H]C([2H])([2H])c1ccc(C2CCCN2C(=O)C(C)(C)Oc2ccc(Cl)cc2F)cc1 (stereo not drawn) [XHJ-3-22] | 1.46 µM | – | 0.302 µM | 0.04 µM | –
23 | CC(C)(Oc1ccc(Cl)cc1F)C(=O)N1N=CCC1c1ccccc1 (stereo not drawn) [ZSQ13-56, 2-(4-Chloro-2-fluorophenoxy)-2-methyl-1-(5-phenyl-4,5-dihydro-1H-pyrazol-1-yl)propan-1-one] | 0.424 µM | 0.049 µM | 0.201 µM | 0.028 µM | –
24 | CC(C)(Oc1ccc(Cl)cc1F)C(=O)N1N=CCC1c1ccc(F)cc1 (stereo not drawn) [ZSQ13-57] | 0.37 µM | 0.026 µM | 0.112 µM | 0.01 µM | –
